From patent publication US8969327B2, “Substituted androst-4-ene diones” (priority 2010, dated 2015)

Target: T1, Purified P450arom (aromatase) reconstituted with P450-reductase (CPR) (Homo sapiens, UniProt P11511)
T1 sequence (P11511 1-503): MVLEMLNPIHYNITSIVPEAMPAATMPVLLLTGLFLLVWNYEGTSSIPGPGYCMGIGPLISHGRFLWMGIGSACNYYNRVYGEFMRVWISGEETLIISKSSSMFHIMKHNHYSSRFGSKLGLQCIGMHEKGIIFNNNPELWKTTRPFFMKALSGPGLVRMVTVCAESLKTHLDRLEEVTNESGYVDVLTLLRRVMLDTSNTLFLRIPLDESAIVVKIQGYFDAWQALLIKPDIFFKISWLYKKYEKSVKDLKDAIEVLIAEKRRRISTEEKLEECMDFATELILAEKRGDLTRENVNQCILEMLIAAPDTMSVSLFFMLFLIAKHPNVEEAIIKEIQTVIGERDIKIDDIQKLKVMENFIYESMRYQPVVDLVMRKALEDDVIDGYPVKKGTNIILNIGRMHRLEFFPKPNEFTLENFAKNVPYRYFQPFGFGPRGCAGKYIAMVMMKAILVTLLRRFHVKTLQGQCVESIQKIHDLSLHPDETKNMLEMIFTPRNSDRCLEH
Test: Measurement of aromatase activity by 3H-water method
Assay type: biochemical
Settings: substrate 0.24 μM [1β-3H, 4-14C] androstenedione, 37° C., 20 minutes

[1] = compound concentration 0.1 (μmol)
[2] = compound concentration 1 (μmol)
[3] = compound concentration 10 (μmol)

Compound	% Inhibition [1] [%]	% Inhibition [2] [%]	% Inhibition [3] [%]
C[C@]12CCC(=O)C(=[N+]=[N-])C1=CC[C@@H]1[C@@H]2CC[C@]2(C)C(=O)CC[C@@H]12 [HDDG-023]	24	30	33
CCOC1=C(O)C=C[C@@]2(C)C1=CC[C@@H]1[C@@H]2CC[C@]2(C)C(=O)CC[C@@H]12 [HDDG-007]	–	12	0
C[C@]12CCC(=O)CC1=CC[C@@H]1[C@@H]2CC[C@]2(C)C(=O)CC[C@@H]12 [HDDG-018]	–	–	41
CCCCO[C@@H]1C[C@@H]2[C@H](CC[C@]3(C)C(=O)CC[C@@H]23)[C@@]2(C)C=CC(=O)C=C12 [HDDG-044, (6R,8S,9S,10R,13S,14S)-6-butoxy-10,13-dimethyl-7,8,9,10,11,12,13,14,15,16-decahydro-3H-cyclopenta[α]phenanthrene-3,17(6H)-dione]	73	96	86
C[C@]12C=CC(O)=C(OCc3ccccc3)C1=CC[C@@H]1[C@@H]2CC[C@]2(C)C(=O)CC[C@@H]12 [HDDG-043]	18	97	90
CCO[C@@H]1C[C@@H]2[C@H](CC[C@]3(C)C(=O)CC[C@@H]23)[C@@]2(C)C=CC(=O)C=C12 [HDDG-025]	–	19	39
CCC(=O)O[C@@H]1C[C@@H]2[C@H](CC[C@]3(C)C(=O)CC[C@@H]23)[C@@]2(C)C=CC(=O)C=C12 [HDDG-030]	3	0	29
CCCC#CCO[C@@H]1C[C@@H]2[C@H](CC[C@]3(C)C(=O)CC[C@@H]23)[C@@]2(C)C=CC(=O)C=C12 [HDDG-047]	42	95	99
CCCCC#CCO[C@@H]1C[C@@H]2[C@H](CC[C@]3(C)C(=O)CC[C@@H]23)[C@@]2(C)C=CC(=O)C=C12 [HDDG-048]	48	87	97
CCC#CCO[C@@H]1C[C@@H]2[C@H](CC[C@]3(C)C(=O)CC[C@@H]23)[C@@]2(C)CCC(=O)C=C12 [HDDG-042]	40	95	99
C[C@]12C=CC(=O)C=C1[C@H](OCC#Cc1ccc(Cl)c(Cl)c1)C[C@@H]1[C@@H]2CC[C@]2(C)C(=O)CC[C@@H]12 [HDDG-053, (6R,8R,9S,10R,13S,14S)-6-((3-(3,4-dichlorophenyl)prop-2-yn-1-yl)oxy)-10,13-dimethyl-7,8,9,10,11,12,13,14,15,16-decahydro-3H-cyclopenta[α]phenanthrene-3,17(6H)-dione]	95	91	–
C[C@]12C=CC(=O)C=C1[C@H](O)C[C@@H]1[C@@H]2CC[C@]2(C)C(=O)CC[C@@H]12 [HDDG-010]	–	–	55
CC(=O)OC1=C(O)C=C[C@@]2(C)C1=CC[C@@H]1[C@@H]2CC[C@]2(C)C(=O)CC[C@@H]12 [HDDG-039]	33	98	88
COC1=C(O)C=C[C@@]2(C)C1=CC[C@@H]1[C@@H]2CC[C@]2(C)C(=O)CC[C@@H]12 [HDDG-011]	–	–	37
CCC(=O)OC1=C(O)C=CC2(C)C1=CCC1C2CCC2(C)C(=O)CCC12 (stereo not drawn) [HDDG-022]	51	86	86
C[C@]12C=CC(O)=C(OC(=O)Cc3ccccc3)C1=CC[C@@H]1[C@@H]2CC[C@]2(C)C(=O)CC[C@@H]12 [HDDG-019]	29	–	54
C[C@]12C=CC(=O)C=C1[C@H](OC(=O)Cc1ccccc1)C[C@@H]1[C@@H]2CC[C@]2(C)C(=O)CC[C@@H]12 [HDDG-031]	0	51	47
CCCCO[C@@H]1C[C@@H]2[C@H](CC[C@]3(C)C(=O)CC[C@@H]23)[C@@]2(C)CCC(=O)C=C12 [HDDG-052]	47	95	87

Compound	% Inhibition [1] [%]	% Inhibition [2] [%]	% Inhibition [3] [%]
C[C@]12CCC(=O)C=C1[C@H](OCc1ccccc1)C[C@@H]1[C@@H]2CC[C@]2(C)C(=O)CC[C@@H]12 [HDDG-041]	34	95	87
C[C@]12C=CC(O)=C(OCC#Cc3ccccc3)C1=CC[C@@H]1[C@@H]2CC[C@]2(C)C(=O)CC[C@@H]12 [HDDG-038]	22	97	91
CO[C@@H]1C[C@@H]2[C@H](CC[C@]3(C)C(=O)CC[C@@H]23)[C@@]2(C)CCC(=O)C=C12 [HDDG-021]	0	70	63
CC#CCO[C@@H]1C[C@@H]2[C@H](CC[C@]3(C)C(=O)CC[C@@H]23)[C@@]2(C)C=CC(=O)C=C12 [HDDG-029]	34	63	95
N#Cc1ccc(C(c2ccc(C#N)cc2)n2cncn2)cc1 [Letrazole, reference compound]	76	98	–
C#CC(C)(C)O[C@@H]1C[C@@H]2[C@H](CC[C@]3(C)C(=O)CC[C@@H]23)[C@@]2(C)C=CC(=O)C=C12 [HDDG-028]	18	44	35
CO[C@@H]1C[C@@H]2[C@H](CC[C@]3(C)C(=O)CC[C@@H]23)[C@@]2(C)C=CC(=O)C=C12 [HDDG-009]	–	–	55
C[C@]12C=CC(=O)C=C1[C@H](OCC#CCO)C[C@@H]1[C@@H]2CC[C@]2(C)C(=O)CC[C@@H]12 [HDDG-065]	96	84	–
C[C@]12C=CC(=O)C=C1[C@H](OCc1ccccc1)C[C@@H]1[C@@H]2CC[C@]2(C)C(=O)CC[C@@H]12 [HDDG-016]	–	–	52
COc1ccc(COC2=C(O)CC[C@@]3(C)C2=CC[C@@H]2[C@@H]3CC[C@]3(C)C(=O)CC[C@@H]23)cc1 [HDDG-064]	96	96	–
CCOC1=C(O)CC[C@@]2(C)C1=CC[C@@H]1[C@@H]2CC[C@]2(C)C(=O)CC[C@@H]12 [HDDG-034]	14	96	88
C[C@]12C=CC(=O)C=C1[C@H](OC/C=C/c1ccccc1)C[C@@H]1[C@@H]2CC[C@]2(C)C(=O)CC[C@@H]12 [HDDG-058, (6R,8R,9S,10R,13S,14S)-6-(cinnamyloxy)-10,13-dimethyl-7,8,9,10,11,12,13,14,15,16-decahydro-3H-cyclopenta[α]phenanthrene-3,17(6H)-dione]	95	94	–
C#CCOC1=C(O)C=C[C@@]2(C)C1=CC[C@@H]1[C@@H]2CC[C@]2(C)C(=O)CC[C@@H]12 [HDDG-032]	32	98	93
C[C@]12C=CC(=O)C=C1[C@@H](Br)C[C@@H]1[C@@H]2CC[C@]2(C)C(=O)CC[C@@H]12 [HDDG-040]	54	94	98
C[C@]12C=CC(=O)C=C1[C@H](OCC#Cc1cccc3ccccc13)C[C@@H]1[C@@H]2CC[C@]2(C)C(=O)CC[C@@H]12 [HDDG-054, (6R,8R,9S,10R,13S,14S)-10,13-dimethyl-6-((3-(naphthalen-1-yl)prop-2-yn-1-yl)oxy)-7,8,9,10,11,12,13,14,15,16-decahydro-3H-cyclopenta[α]phenanthrene-3,17(6H)-dione]	94	92	–
CO[C@H]1C[C@@H]2[C@H](CC[C@]3(C)C(=O)CC[C@@H]23)[C@@]2(C)C=CC(=O)C=C12 [HDDG-014]	–	–	42
CC(C)(C)O[C@@H]1C[C@@H]2[C@H](CC[C@]3(C)C(=O)CC[C@@H]23)[C@@]2(C)CCC(=O)C=C12 [HDDG-024]	16	78	76
